The source of these data is US8741262B2, “Targeted radiotherapy” (Katholieke Universiteit Leuven, K.U. Leuven R&D, priority 2007, dated 2014).

The data set concerns liver radiation-induced fibrosarcoma (RIF-1), RFA-induced necrosis. Put plainly: Hypericin distribution in liver RIF-1 tumor in mice after radiofrequency ablation, fluoromacroscopy and fluorescence microscopy. The format is in vivo. The following applies: 5 mg/kg iv 24 h after RFA, 3 d after injection. How it is done: The rectangular frame in A and B indicates where micrographs (C and D) were approximately focused. […] Thus, the prolonged retention of hypericin in necrosis matches well the radiation half life of iodine-131 (8 d) or yttrium-90 (64 h), which offers an ideal condition for the present adjuvant anti-cancer radiotherapy with combined use of a small molecule therapeutically labeled NACCs featuring multi-millimeter irradiation penetration (max. range of beta particles in tissue is 2.4 mm for iodine-131 and 12 mm for yttrium-90).

As for `Cc1cc(O)c2c(=O)c3c(O)cc(O)c4c5c(O)cc(O)c6c(=O)c7c(O)cc(C)c8c1c2c(c34)c(c78)c65` [hypericin], the “Fluorescence microscopy of necrotic tumor regions” value is recorded as “can still be detected in RFA-induced necrotic tumor regions (NT)”; the “Tissue distribution by UV light fluoromacroscopy” value is “almost completely cleared from viable liver (VL) and viable tumor (VT), but is retained only in necrotic tumor (NT) and necrotic liver (NL)”.
